The values that follow come from patent US8779151B2, “Orally bioavailable caffeic acid related anticancer drugs” (The Board of Regents of the University of Texas System, priority 2006, dated 2014).

For assay [1], the system named is subcutaneous malignant glioma xenografts. Conditions: cited from earlier work.
Assay [2] deals with U373-MG cells. Conditions: cited from earlier work.
For assay [3], the system named is constitutively activated STAT3 in Colo357-FG cells. Nature of the assay: Western blot of phosphorylated STAT3 (Tyr705) and total STAT3 in Colo357-FG cells (FIG. 1). The assay is classed as cell-based, human. An excerpt: Cultured pancreatic cancer cells treated with different times and concentrations of WP compounds or DMSO (solvent) were lysed in lysis buffer and equal amounts of protein extracts were fractionated by sodium dodecyl sulfate polyacrylamide gel electrophoresis and transferred to Hybond-P membranes. Membranes were immuno-blotted using phospho-specific STAT3, total STAT3, Bcl-xL, survivin, PARP, caspase-8 and GADPH antibodies. The primary antibodies were visualized with goat anti-rabbit or goat anti-mouse peroxidase-conjugated antibodies using an enhanced […] (ECF) system and a Molecular Dynamics Storm PhosphorImager.
A general note: In western blotting, separated proteins are transferred to a membrane and probed.

In assay [4] the test system is human malignant glioma U87-MG and U373-MG cells. Conditions: cited from earlier work.
The test system of assay [5] is U87-MG cells. Conditions: cited from earlier work.
Assay [6] relates to STAT3. Nature of the assay: Inhibition of STAT3 phosphorylation, WP1193 compared with WP1066 (FIG. 34). The assay is classed as cell-based.

For the compound `C[C@H](NC(=O)/C(C#N)=C/c1cccc(Br)n1)c1ccccc1` [WP1066], the “phosphorylated STAT3 levels in excised tumors (immunohistochemical analysis)” value in assay [1] (3 weeks after the final WP1066 injection, versus control group) was “remained inhibited”. The “growth of subcutaneous malignant glioma xenografts” value in assay [1] (mice, systemic intraperitoneal administration, 30-day follow-up period) is recorded as “significantly (P<0.001) inhibited the growth”. Also, the concentration for half-maximal inhibition (IC50) in assay [2] was 3.7 µM; in assay [5], 5.6 µM. In addition, the “increase in potency over that of AG490” value in assay [2] (versus AG490) was “eightfold”; in assay [5] (versus AG490), 18 fold. Further, the “inhibition of constitutively activated STAT3 (phospho-Tyr705 versus total STAT3)” value in assay [3] is recorded as “Inhibition of constitutively activated STAT3”. Besides, in assay [4], the “Bax, c-myc, Bcl-XL, Mcl-1 and apoptosis” value is “activated Bax, suppressed the expression of c-myc, Bcl-XL and Mcl-1, and induced apoptosis”.

Consider `N#C/C(=C\c1cccc(Br)n1)C(=O)N[C@H](c1ccccc1)C1CC1` [WP1193, (E)-3-(6-bromopyridin-2-yl)-2-cyano-N-((S)-cyclopropyl(phenyl)methyl)acrylamide], for which the “inhibition of constitutively activated STAT3 (phospho-Tyr705 versus total STAT3)” value in assay [3] is “Inhibition of constitutively activated STAT3”. Further, the “inhibition of STAT3 phosphorylation relative to WP1066” value in assay [6] is reported as “more potently than WP1066”.

Broadly, the IC50 is the concentration needed to halve the response being measured.
